The subject of the experiment is LpxC enzyme. Description: LpxC enzyme assay (RapidFire high-throughput mass spectrometry). It is filed as biochemical. The protocol: The standard LpxC assay consists of 0.2 nM LpxC enzyme, 1.0 μM UDP-3-O—(R-3-hydroxymyristoyl)-N-acetylglucosamine, and test compound, in assay buffer and 2% DMSO. Assay buffer is comprised of 25 mM HEPES, pH 7.3, 150 mM NaCl, 2.0 mM DTT, and 0.01% BSA. The enzyme reaction is carried out in a 96-well assay plate, in a final volume of 102 μL. Solutions of test compounds are prepared in 100% DMSO. Reaction additions, in order, are (1) 2.0 μL compound solution, (2) 80 μL of assay buffer, (3) 10 μL of 10 μM UDP-3-O—(R-3-hydroxymyristoyl)-N-acetylglucosamine (in assay buffer) and, (4) 10 μL of LpxC enzyme (20 nM in assay buffer) to initiate the reaction. In positive control reactions, addition (1) has 2.0 μL of 100% DMSO (without compound); these reactions are used as the total signal (TSB) value. Reactions are incubated at room temperature for 60 minutes when 10 μL of 1 N HCl is added to stop the reaction. The plate is shaken by hand for 10 seconds to ensure complete quenching. Assay plates are sealed with foil tape, and stored at −80° C. for 24-48 hr prior to analysis.
The concentrations of substrate and product in the reaction mixtures are determined with BioTrove's proprietary RapidFire™ high-throughput mass spectrometry (HTMS). Assay mixtures are partially purified with reverse phase chromatography, where they are washed with water containing 5 mM ammonium formate and eluted onto the mass spectrometer in 80% acetonitrile, 20% water, and 5 mM ammonium formate. The mass spectrometry peak areas of the substrate and product are measured to determine the concentration of these analytes. The assay signal is the percentage of substrate that is converted to product. Percent inhibition, % I, in test samples is determined from the following equation: […]

[1] abbreviates: concentration 0.10 (unit not given).
Where [2] appears, read: concentration 0.20 (unit not given).
[3] abbreviates: concentration 0.39 (unit not given).
[4] abbreviates: concentration 0.78 (unit not given).
The mark [5] stands for this setting: concentration 1.56 (unit not given).
Where [6] appears, read: concentration 3.13 (unit not given).
The mark [7] stands for this setting: concentration 6.25 (unit not given).
[8] abbreviates: concentration 12.50 (unit not given).
[9] abbreviates: concentration 25 (unit not given).
[10] abbreviates: concentration 50 (unit not given).

Molecules are shown by their SMILES.

`CNC(=O)[C@H](O)[C@@H](O)C(=O)Nc1ccc(C#Cc2ccccc2)cc1` [Compound 25]: the “LpxC enzyme assay rating (% inhibition at indicated concentrations)” value under setting [1] was “C (less than 10% inhibition)”; the “LpxC enzyme assay rating (% inhibition at indicated concentrations)” value under setting [2] is “C (less than 10% inhibition)”; the “LpxC enzyme assay rating (% inhibition at indicated concentrations)” value under setting [3] is listed as “C (less than 10% inhibition)”; the “LpxC enzyme assay rating (% inhibition at indicated concentrations)” value under setting [4] was “C (less than 10% inhibition)”; the “LpxC enzyme assay rating (% inhibition at indicated concentrations)” value under setting [5] is on record as “C (less than 10% inhibition)”; the “LpxC enzyme assay rating (% inhibition at indicated concentrations)” value under setting [6] is reported as “C (less than 10% inhibition)”. In addition, the “LpxC enzyme assay rating (% inhibition at indicated concentrations)” value by setting is: under setting [7], “C (less than 10% inhibition)”; under setting [8], “B (10-30% inhibition)”; under setting [9], “C (less than 10% inhibition)”; under setting [10], “C (less than 10% inhibition)”.

For `CNC(=O)[C@H](O)[C@@H](O)C(=O)n1ccc2cc(C#Cc3ccccc3)ccc21` [Compound 26], the “LpxC enzyme assay rating (% inhibition at indicated concentrations)” value is, setting by setting: under setting [1], “C (less than 10% inhibition)”; under setting [2], “C (less than 10% inhibition)”; under setting [3], “C (less than 10% inhibition)”; under setting [4], “C (less than 10% inhibition)”; under setting [5], “C (less than 10% inhibition)”; under setting [6], “C (less than 10% inhibition)”. For the same compound, the “LpxC enzyme assay rating (% inhibition at indicated concentrations)” value was “C (less than 10% inhibition)” under setting [7], “B (10-30% inhibition)” under setting [8], “C (less than 10% inhibition)” under setting [9] and “B (10-30% inhibition)” under setting [10].

On to `CNC(=O)[C@H](O)[C@@H](O)C(=O)Nc1ccc(-c2ccccc2)cc1` [Compound 27], for which the “LpxC enzyme assay rating (% inhibition at indicated concentrations)” value under setting [1] is reported as “C (less than 10% inhibition)”; the “LpxC enzyme assay rating (% inhibition at indicated concentrations)” value under setting [2] is on record as “C (less than 10% inhibition)”; the “LpxC enzyme assay rating (% inhibition at indicated concentrations)” value under setting [3] is “C (less than 10% inhibition)”; the “LpxC enzyme assay rating (% inhibition at indicated concentrations)” value under setting [4] is reported as “C (less than 10% inhibition)”; the “LpxC enzyme assay rating (% inhibition at indicated concentrations)” value under setting [5] was “C (less than 10% inhibition)”; the “LpxC enzyme assay rating (% inhibition at indicated concentrations)” value under setting [6] was “B (10-30% inhibition)”. Further, the “LpxC enzyme assay rating (% inhibition at indicated concentrations)” value was “B (10-30% inhibition)” under setting [7], “B (10-30% inhibition)” under setting [8], “B (10-30% inhibition)” under setting [9] and “B (10-30% inhibition)” under setting [10].

`CNC(=O)[C@H](O)[C@@H](O)C(=O)Nc1ccc(-c2ccc(C(F)(F)F)cc2)cc1` [Compound 28]: the “LpxC enzyme assay rating (% inhibition at indicated concentrations)” value under setting [1] is reported as “C (less than 10% inhibition)”; the “LpxC enzyme assay rating (% inhibition at indicated concentrations)” value under setting [2] is recorded as “C (less than 10% inhibition)”; the “LpxC enzyme assay rating (% inhibition at indicated concentrations)” value under setting [3] is on record as “C (less than 10% inhibition)”; the “LpxC enzyme assay rating (% inhibition at indicated concentrations)” value under setting [4] is on record as “C (less than 10% inhibition)”; the “LpxC enzyme assay rating (% inhibition at indicated concentrations)” value under setting [5] is given as “C (less than 10% inhibition)”; the “LpxC enzyme assay rating (% inhibition at indicated concentrations)” value under setting [6] is recorded as “C (less than 10% inhibition)”. In addition, the “LpxC enzyme assay rating (% inhibition at indicated concentrations)” value is “C (less than 10% inhibition)” under setting [7], “B (10-30% inhibition)” under setting [8], “C (less than 10% inhibition)” under setting [9] and “C (less than 10% inhibition)” under setting [10].

On to `CNC(=O)[C@H](O)[C@@H](O)C(=O)N1CCN(c2cccc3ccccc23)CC1` [Compound 29], for which the “LpxC enzyme assay rating (% inhibition at indicated concentrations)” value runs as follows: under setting [1], “C (less than 10% inhibition)”; under setting [2], “C (less than 10% inhibition)”; under setting [3], “C (less than 10% inhibition)”; under setting [4], “C (less than 10% inhibition)”; under setting [5], “B (10-30% inhibition)”; under setting [6], “B (10-30% inhibition)”. For the same compound, the “LpxC enzyme assay rating (% inhibition at indicated concentrations)” value was “B (10-30% inhibition)” under setting [7], “B (10-30% inhibition)” under setting [8], “B (10-30% inhibition)” under setting [9] and “B (10-30% inhibition)” under setting [10].

As for `CNC(=O)[C@H](O)[C@@H](O)C(=O)N1CCN(c2ccc(-c3ccccc3)cc2)CC1` [Compound 30], the “LpxC enzyme assay rating (% inhibition at indicated concentrations)” value runs as follows: under setting [1], “C (less than 10% inhibition)”; under setting [2], “B (10-30% inhibition)”; under setting [3], “B (10-30% inhibition)”; under setting [4], “C (less than 10% inhibition)”; under setting [5], “C (less than 10% inhibition)”; under setting [6], “B (10-30% inhibition)”. Also, the “LpxC enzyme assay rating (% inhibition at indicated concentrations)” value is on record as “B (10-30% inhibition)” under setting [7], “B (10-30% inhibition)” under setting [8], “B (10-30% inhibition)” under setting [9] and “A (greater than 30% inhibition)” under setting [10].

On to `CNC(=O)[C@H](O)[C@@H](O)C(=O)N1CCN(c2cccc(-c3ccccc3)c2)CC1` [Compound 31], for which the “LpxC enzyme assay rating (% inhibition at indicated concentrations)” value is, setting by setting: under setting [1], “C (less than 10% inhibition)”; under setting [2], “B (10-30% inhibition)”; under setting [3], “C (less than 10% inhibition)”; under setting [4], “B (10-30% inhibition)”; under setting [5], “B (10-30% inhibition)”; under setting [6], “B (10-30% inhibition)”. Besides, the “LpxC enzyme assay rating (% inhibition at indicated concentrations)” value reads like this: under setting [7], “C (less than 10% inhibition)”; under setting [8], “B (10-30% inhibition)”; under setting [9], “B (10-30% inhibition)”; under setting [10], “B (10-30% inhibition)”.

On to `CCCCc1ccc(NC(=O)[C@H](O)[C@@H](O)C(=O)NC)cc1` [Compound 32], for which the “LpxC enzyme assay rating (% inhibition at indicated concentrations)” value runs as follows: under setting [1], “B (10-30% inhibition)”; under setting [2], “B (10-30% inhibition)”; under setting [3], “B (10-30% inhibition)”; under setting [4], “B (10-30% inhibition)”; under setting [5], “C (less than 10% inhibition)”; under setting [6], “B (10-30% inhibition)”. In addition, the “LpxC enzyme assay rating (% inhibition at indicated concentrations)” value reads like this: under setting [7], “C (less than 10% inhibition)”; under setting [8], “B (10-30% inhibition)”; under setting [9], “B (10-30% inhibition)”; under setting [10], “B (10-30% inhibition)”.

As to `CCCc1ccc(NC(=O)[C@H](O)[C@@H](O)C(=O)NC)cc1` [Compound 33], the “LpxC enzyme assay rating (% inhibition at indicated concentrations)” value runs as follows: under setting [1], “C (less than 10% inhibition)”; under setting [2], “C (less than 10% inhibition)”; under setting [3], “C (less than 10% inhibition)”; under setting [4], “C (less than 10% inhibition)”; under setting [5], “B (10-30% inhibition)”; under setting [6], “B (10-30% inhibition)”. In addition, the “LpxC enzyme assay rating (% inhibition at indicated concentrations)” value reads like this: under setting [7], “B (10-30% inhibition)”; under setting [8], “C (less than 10% inhibition)”; under setting [9], “C (less than 10% inhibition)”; under setting [10], “C (less than 10% inhibition)”.
